Test results: the NIST ThermoML archive (doi:10.1021/acs.jced.8b00358)

Columns and labels:
[1] = 83 kPa, Liquid; for speed of sound: Frequency=3 MHz, Single path-length method; for mass density: Vibrating tube method
[2] = molar heat capacity at constant pressure; details: 83 kPa, Liquid, DSC

CCCCCCC(=O)OCC(COC(=O)CCCCCC)(COC(=O)CCCCCC)COC(=O)CCCCCC [pentaerythritol tetraheptanoate]
Details | mass density [kg/m3] | molar heat capacity at constant pressure [J/K/mol] | speed of sound [m/s]
[1], 278.15 K | 989.09 | – | 1435
[1], 283.15 K | 985.27 | – | 1417.7
[1], 288.15 K | 981.48 | – | 1400.7
[1], 293.15 K | 977.69 | – | 1383.8
[1], 298.15 K | 973.91 | – | 1367
[1], 303.15 K | 970.14 | – | 1350.3
[1], 308.15 K | 966.38 | – | 1333.9
[1], 313.15 K | 962.62 | – | 1317.8
[1], 318.15 K | 958.87 | – | 1301.9
[1], 323.15 K | 955.13 | – | 1286.1
[1], 328.15 K | 951.39 | – | 1270.4
[1], 333.15 K | 947.66 | – | 1254.9
[1], 338.15 K | 943.92 | – | 1239.6
[1], 343.15 K | 940.2 | – | 1224.5
[2], 293.14 K | – | 1059.1 | –
[2], 294.14 K | – | 1060.3 | –
[2], 295.14 K | – | 1062 | –
[2], 296.14 K | – | 1063.8 | –
[2], 297.14 K | – | 1065.6 | –
[2], 298.14 K | – | 1066.7 | –
[2], 299.14 K | – | 1068.5 | –
[2], 300.14 K | – | 1070.2 | –
[2], 301.14 K | – | 1071.4 | –
[2], 302.14 K | – | 1073.2 | –
[2], 303.14 K | – | 1074.9 | –
[2], 304.14 K | – | 1076.1 | –
[2], 305.14 K | – | 1077.8 | –
[2], 306.14 K | – | 1079 | –
[2], 307.14 K | – | 1080.8 | –
[2], 308.14 K | – | 1082.5 | –
[2], 309.14 K | – | 1083.7 | –
[2], 310.14 K | – | 1085.4 | –
[2], 311.14 K | – | 1086.6 | –
[2], 312.14 K | – | 1088.4 | –
[2], 313.14 K | – | 1090.1 | –
[2], 314.14 K | – | 1091.9 | –
[2], 315.14 K | – | 1093 | –
[2], 316.14 K | – | 1094.8 | –
[2], 317.14 K | – | 1096.5 | –
[2], 318.14 K | – | 1098.3 | –
[2], 319.14 K | – | 1099.5 | –
[2], 320.14 K | – | 1101.2 | –
[2], 321.14 K | – | 1103 | –
[2], 322.13 K | – | 1104.1 | –
[2], 323.14 K | – | 1105.9 | –
[2], 324.14 K | – | 1107.7 | –
[2], 325.14 K | – | 1108.8 | –
[2], 326.14 K | – | 1110.6 | –
[2], 327.14 K | – | 1112.3 | –
[2], 328.14 K | – | 1114.1 | –
[2], 329.14 K | – | 1115.8 | –
[2], 330.14 K | – | 1117 | –
[2], 331.14 K | – | 1118.8 | –
[2], 332.14 K | – | 1120.5 | –
[2], 333.14 K | – | 1121.7 | –
[2], 334.13 K | – | 1123.4 | –
[2], 335.14 K | – | 1125.2 | –
[2], 336.14 K | – | 1127 | –
[2], 337.14 K | – | 1128.1 | –
[2], 338.14 K | – | 1129.9 | –
[2], 339.14 K | – | 1131.6 | –
[2], 340.14 K | – | 1133.4 | –
[2], 341.13 K | – | 1134.6 | –
[2], 342.14 K | – | 1136.3 | –
[2], 343.14 K | – | 1138.1 | –
[2], 344.14 K | – | 1139.8 | –
[2], 345.13 K | – | 1141.6 | –
[2], 346.14 K | – | 1143.3 | –
[2], 347.14 K | – | 1145.1 | –
[2], 348.14 K | – | 1146.3 | –
[2], 349.14 K | – | 1148 | –
[2], 350.14 K | – | 1149.8 | –
[2], 351.14 K | – | 1151.5 | –
[2], 352.14 K | – | 1153.3 | –
[2], 353.14 K | – | 1154.4 | –
[2], 354.14 K | – | 1156.2 | –
[2], 355.14 K | – | 1158 | –
[2], 356.14 K | – | 1159.7 | –
[2], 357.14 K | – | 1160.9 | –
[2], 358.14 K | – | 1162.6 | –
[2], 359.14 K | – | 1164.4 | –
[2], 360.14 K | – | 1166.1 | –
[2], 361.14 K | – | 1167.9 | –
[2], 362.14 K | – | 1169.1 | –
[2], 363.14 K | – | 1170.8 | –
[2], 364.14 K | – | 1172.6 | –
[2], 365.14 K | – | 1174.3 | –
[2], 366.14 K | – | 1176.1 | –
[2], 367.14 K | – | 1177.3 | –
[2], 368.14 K | – | 1179 | –
[2], 369.14 K | – | 1180.8 | –
[2], 370.14 K | – | 1182.5 | –
[2], 371.14 K | – | 1184.3 | –
[2], 372.14 K | – | 1185.4 | –
[2], 373.14 K | – | 1187.2 | –
[2], 374.14 K | – | 1188.9 | –
[2], 375.14 K | – | 1190.7 | –
[2], 376.14 K | – | 1192.5 | –
[2], 378.14 K | – | 1196 | –
[2], 379.14 K | – | 1197.7 | –
[2], 380.14 K | – | 1198.9 | –
[2], 381.14 K | – | 1200.6 | –
[2], 382.14 K | – | 1202.4 | –
[2], 383.14 K | – | 1204.2 | –
[2], 384.14 K | – | 1205.9 | –
[2], 385.14 K | – | 1207.7 | –
[2], 386.14 K | – | 1209.4 | –
[2], 387.14 K | – | 1211.2 | –
[2], 388.14 K | – | 1212.9 | –
[2], 389.14 K | – | 1214.1 | –
[2], 390.14 K | – | 1215.9 | –
[2], 391.14 K | – | 1217.6 | –
[2], 392.14 K | – | 1219.4 | –
[2], 393.14 K | – | 1220.5 | –
[2], 394.14 K | – | 1222.3 | –
[2], 395.14 K | – | 1224 | –
[2], 396.14 K | – | 1225.2 | –
[2], 397.14 K | – | 1227 | –
[2], 398.14 K | – | 1228.7 | –
[2], 399.14 K | – | 1230.5 | –
[2], 400.14 K | – | 1232.2 | –
[2], 401.14 K | – | 1234 | –
[2], 402.14 K | – | 1235.7 | –
[2], 403.14 K | – | 1236.9 | –
[2], 404.14 K | – | 1238.7 | –
[2], 405.14 K | – | 1240.4 | –
[2], 406.14 K | – | 1242.2 | –
[2], 407.14 K | – | 1243.9 | –
[2], 408.14 K | – | 1245.7 | –
[2], 409.14 K | – | 1247.4 | –
[2], 410.14 K | – | 1248.6 | –
[2], 411.14 K | – | 1250.4 | –
[2], 412.13 K | – | 1252.1 | –
[2], 413.14 K | – | 1253.9 | –
[2], 414.13 K | – | 1255.6 | –
[2], 415.14 K | – | 1257.4 | –
[2], 416.14 K | – | 1258.5 | –
[2], 417.14 K | – | 1260.3 | –
